This is an account of results in US20250381163A1, “Chelating Agents for Use in Cancer Therapy” (priority 2022, published 2025).

Data set [1] concerns p53. It counts as biochemical. Conditions: Beas-2B lysates with metals 30 min, then chelator 1 hr; naïve and loaded lysates; FIG. 23.
The next data set has as its system Beas-2B cells. In words: Resazurin cell survival assay, metal-induced chemoresistance and chelators. To be noted: for Reversal of metal-induced chemoresistance to doxorubicin, non-saturating chelator dose: DMPS 40 μM, EDTA 20 μM, FIG. 5. The data set is classed as cell-based. The procedure:
(§1) Resazurin cell survival assays were used to determine cell survival upon chemotherapeutic and chelator challenge. 2×10^3 cells were seeded in 100 μl in 96 well plates. 24 hrs later medium was replaced with 90 μl of metal mixtures or control medium for another 24 hrs. Next a combination of chelators and chemotherapy as indicated in the figures was prepared and added as an additional 10 μl to the cells. Cells were then incubated for 72 hr (Beas-2B) or 96 hr (A549 and MCF7). A stock solution of resazurin (Sigma) was made as 880 μM in PBS adjusted to pH 7.8/filtered 0.2 μm and kept for 6 months at 4° C. Medium was replaced with 75 μl of resazurin solution (final concentration 44 μM). Cells were incubated at 37° C. for 3-4 hrs and fluorescence emission was measured at 583 nm with excitation at 555 nm using a spectrophotometer (Beckman). To test the effects of metals on doxorubicin directly, doxorubicin was incubated with metals in solution 24 hrs as a 10× solution, prior to adding to cells, whereas control cells were incubated in metals as described before.
IC50 values were calculated using Graphpad Prism. Error bars represent standard deviation of triplicate measurements.

For another data set, the system named is H2170 cells. In words: Cell survival assay, metal exposure and chelation treatment. It counts as cell-based. To be noted: H2170 pre-treated with metals 1:128, then DMPS and doxorubicin for 72 hrs; FIG. 16. The procedure:
as §1
Overall, the methods disclosed in the first example were used in the second example as well. […]
(§2) Hep3B and H2177 cells were obtained from ATCC and were maintained in DMEM high Glucose (Invitrogen) and 10% FCS (Gibco) at 37° C. and 5% CO2. […] Cells were subsequently counted and added to 96 well plates for survival assays as previously described. […]

Another data set has as its system MCF7 breast cancer cells. In words: Resazurin cell survival assay, metal-induced chemoresistance and chelators. The data set is classed as cell-based. To be noted: FIG. 3B. Also on record: dose or concentration left out as unconfirmed. The procedure: as §1
The subject of the next data set is A549 lung cancer cells. The data set is described as above. It counts as cell-based. Details: dose or concentration left out as unconfirmed. Conditions: FIG. 3C. The procedure: as §1
The subject of the next data set is A549 p53 KO cells. Kind of data set: Resazurin cell survival assay in p53 KO clone. To be noted: p53 KO clone of A549; DMPS (150 μM); doxorubicin; FIG. 3D. It counts as cell-based. The procedure: A549, MCF7 and Beas-2B cells were obtained from ATCC (https://www.atcc.org). Cells were maintained in DMEM high Glucose (Invitrogen) and 10% FCS (Gibco) at 37° C. and 5% CO2. A549 p53 KO cells were generated using a CRISPR p53 KO construct (pLV-U6g-EPCG with target sequence TCCATTGCTTGG GACGGCAAGG, Sigma). Cell lines were selected for GFP expression using FACS sorting followed by clonal selection in neomycin (600 ng/ml, Sigma).
as §1, with “To test the effects of metals on doxorubicin directly, doxorubicin was incubated with metals in solution 24 hrs as a 10× solution, prior to adding to cells, whereas control cells were incubated in metals as described before.” left out
Background: Alamar Blue is a resazurin reagent that responds to reducing activity.

Data set [2] relates to p53. In words: p53 folding status in cells (immunoprecipitation with folding antibodies / western blot). It counts as cell-based. Conditions: Beas-2B cells incubated with metals in presence or absence of chelator; FIG. 20, 21. The procedure: (§3) Cells were seeded in 6 well plates at 30% cell density. 24 hrs later, medium was replaced with the metal mixtures as indicated. Cells were incubated for 24 hrs and lysed with 100 μl NP-40 lysis buffer (100 mM NaCl 100 mM Tris pH8, 1% NP-40) for 15 min on ice. Cell pellets were discarded in centrifugation (10 min max) and 10% of input was taken for western blot and mixed with 4×SB. The remaining lysate was subjected to immunoprecipitation with p53 Ab240 Ab (1 ul per condition) using 30 μl NP-40 buffer washed goat-anti-mouse magnetic Dynabeads (Thermo Fisher). Lysates and beads were tumbled at 4° C. for 2 hrs and washed 3× with NO-40 buffer. Beads were taken up in 2×SB and together with inputs denatured at 95° C. in a heat block. 8% SDS page gels were used to run all of the samples on western blot. Gels were transferred on nitrocellulose membrane, blocked with milk (TBS-Tween) for 1 hr tumbling and incubated in p53 DO-1 (Santa Cruz Ab, 1:2000) ON at 4° C. The membrane was washed 3× with TBS-tween and secondary Ab (anti-mouse 700, Li-Cor) was used 1:10.000 to incubate the blot for 1 hr at room temperature. The blot was washed with TBS-tween 3× and the signal was measured in a Li-Cor Odyssey. Quantification was measured in the software of Li-Cor and plotted corrected for input levels of each sample.
In general terms: Immunoblotting shows a protein as a band on a membrane.

Another data set deals with BxPC-3 cells. In words: Cell survival assay, metal exposure and chelation treatment. The data set is classed as cell-based. To be noted: BxPC3 pre-treated with metals 1:128; for Reversal of metal-induced chemoresistance to 5-FU: 150 μM chelator and 5-FU for 72 hrs, FIG. 17; for Effect of chelator on resistance/survival with nab-paclitaxel: 150 μM chelator and nab-paclitaxel for 72 hrs, FIG. 18. The procedure:
as §1
Overall, the methods disclosed in the first example were used in the second example as well.

The subject of a further data set is WT p53. Kind of data set: p53 folding in transfected Hep3B cells. It counts as cell-based. Conditions: Hep3B transfected with WT p53; metals followed by miaDMSA; FIG. 22. The procedure: as §3, with “The membrane was washed 3× with TBS-tween and secondary Ab (anti-mouse 700, Li-Cor) was used 1:10.000 to incubate the blot for 1 hr at room temperature.” left out
as §2

A further data set concerns 158 mutant p53. In words: p53 folding in transfected Hep3B cells. To be noted: Hep3B transfected with 158 mutant p53; metals followed by miaDMSA; FIG. 22. The data set is classed as cell-based. The procedure: as §3, with “The membrane was washed 3× with TBS-tween and secondary Ab (anti-mouse 700, Li-Cor) was used 1:10.000 to incubate the blot for 1 hr at room temperature.” left out
as §2

[3] abbreviates: metal-loaded Beas-2B, DMPS 150 μM, EDTA 75 μM (equivalent chelation capacity), alone or combined, FIG. 4.
[4] abbreviates: Beas-2B pre-treated with metals 1:128, then chelator and doxorubicin for 72 hrs, FIG. 14, 15.

“Also recorded” adds a separate entry of the source.

Turning to `O=C(O)CN(CCN(CC(=O)O)CC(=O)O)CC(=O)O` [EDTA, ethylenediaminetetraacetic acid], the “Refolding of unfolded p53” value in the data set with p53 [1] is “clearly able to refold some of the p53”. For the same compound, the “Reversal of metal-induced chemoresistance to doxorubicin, non-saturating chelator dose” value with Beas-2B cells (alone or combined) was “not able to restore chemosensitivity substantially”. In addition, in the data set with Beas-2B cells (setting [3]), the “Reversal of metal-induced chemoresistance to doxorubicin” value is recorded as “able to restore chemosensitivity although not to the extent as seen for DMPS; also recorded: reversed the resistance only partially”.
On to `O=S(=O)(O)CC(S)CS` (centres unmarked) [DMPS, 2,3-dimercapto-1-propanesulfonic acid], for which the “Reversal of metal-induced chemoresistance to doxorubicin” value in the data set on H2170 cells is on record as “only partially reversed”; in the data set with MCF7 breast cancer cells, “reversed the chemoresistance completely”; in the data set on A549 lung cancer cells, “reversed the chemoresistance completely”; in the data set with Beas-2B cells (setting [3]), “almost completely restored; also recorded: reversed chemoresistance completely”. Moreover, the “Metal induced chemoresistance and its reversal by chelator” value in the data set with A549 p53 KO cells was “less pronounced than in native A549 cells”. Moreover, the “Restoration of sensitivity to doxorubicin (reversal of metal-induced chemoresistance)” value with Beas-2B cells (Beas2B cells primed with 1:128 and 1:256 metals, DMPS 150 μM, FIG. 3A) was “completely restored”. In addition, the “Reversal of metal-induced chemoresistance to doxorubicin, non-saturating chelator dose” value in the data set with Beas-2B cells (alone or combined) was “not able to restore chemosensitivity substantially”. Besides, in the data set with p53 [2], the “Prevention of metal-induced unfolding of p53” value is listed as “prevents unfolding”.
`O=C(O)C(S)C(S)C(=O)O` (centres unmarked) [DMSA, 2,3-dimercaptosuccinic acid]: in the data set with BxPC-3 cells, the “Reversal of metal-induced chemoresistance to 5-FU” value was “reversed” and the “Effect of chelator on resistance/survival with nab-paclitaxel” value was “reduce survivability”. Also, in the data set on Beas-2B cells (setting [4]), the “Reversal of metal-induced chemoresistance to doxorubicin” value is recorded as “only partially reversed”. For the same compound, in the data set on p53 [2], the “Prevention of metal-induced unfolding of p53” value is “prevents unfolding”.
For the compound `COc1cccc2c1C(=O)c1c(O)c3c(c(O)c1C2=O)C[C@@](O)(C(=O)CO)C[C@@H]3O[C@H]1C[C@H](N)[C@H](O)[C@H](C)O1` [doxorubicin], the “IC50 of doxorubicin in metal-loaded cells relative to cells without added metals” value in the data set with Beas-2B cells (Beas-2B loaded with metals (1:128), FIG. 6) was “more than 10 times”. The IC50 of doxorubicin result in the data set on Beas-2B cells (Beas-2B without added metals, FIG. 6) is listed as “low”.
For the compound `CC(C)CCOC(=O)[C@@H](S)[C@@H](S)C(=O)O` [miaDMSA, monoisoamylDMSA], in the data set on BxPC-3 cells, the “Reversal of metal-induced chemoresistance to 5-FU” value is “reversed” and the “Effect of chelator on resistance/survival with nab-paclitaxel” value is reported as “reduce survivability; also recorded: reduction of resistance”. In addition, the “Prevention of metal-induced unfolding of p53” value in the data set on WT p53 is listed as “prevented or reduced”. For the same compound, the “Prevention of metal-induced unfolding of p53” value in the data set with 158 mutant p53 was “prevented or reduced”. Besides, the “Refolding of unfolded p53” value in the data set with p53 [1] is recorded as “clearly able to refold some of the p53”. Further, the “Reversal of metal-induced chemoresistance to doxorubicin” value in the data set with Beas-2B cells (setting [4]) is “highly potent chelator; also recorded: completely reversed”.
